From US20250000907A1, “ENGINEERED IMMUNE CELLS WITH REDUCED SIRT6 EXPRESSION” (H. LEE MOFFITT CANCER CENTER AND RESEARCH INSTITUTE, INC., priority 2021, published 2025)

Assays:
[1] = tested on: TILs isolated from B16F10 tumors; assay: IFN-γ ELISPOT assay of B16F10 TILs re-challenged with B16F10 cells; assay type: cell-based, mouse; settings: B16F10 TILs re-challenged with B16F10 cells ex vivo, FIG. 7G
Protocol: Lymphocytes from subcutaneous tumors were isolated by dicing the tissues followed by enzymatic digestion in PBS containing collagenase type 4 (2 mg/ml, Worthington Biochemical) and DNase I (0.25 mg/ml, Sigma-Aldrich) for 45 min with occasional shaking at 37° C. Cell suspensions were then twice filtered through 100 μm and 40 μm cell strainers (Thermo Fisher Scientific) to obtain single-cell suspension followed by a PBS wash and red blood cell lysis using RBC Lysis Buffer (Biolegend). TILs were finally isolated by density gradient centrifugation using Percoll (GE Healthcare) and were further purified using […] MicroBeads Kit™ (Miltenyi Biotec) according to the manufacturer's instructions. T cell purity was greater than 90% (data not shown). Fresh TILs were used directly for phenotypic and metabolic analyses or were cultured in complete RPMI medium for functional assays.
The number of IFN-γ producing cells was evaluated in an ELISPOT assay. […] After washing steps and successive biotinylated anti-IFN-γ antibody (R4-6A2, Mabtech, Inc.) and Streptavidin-HRP (BD Bioscience) labeling, spots were detected using AEC Substrate Kit (BD Biosciences) and counted using an AID ELISPOT Reader System (Autoimmun Diagnostika GmbH).

B16F10 cells = assay: LDH release cytotoxic assay of Pmel T cells against B16F10 cells; assay type: cell-based, mouse; settings: Pmel T cells ex vivo, OSS vs. DMSO, FIG. 7D
Protocol: Evaluation of functional cytotoxic activity was performed using Pierce™ LDH Cytotoxicity Assay Kit (Thermo Fisher Scientific) according to the manufacturer's protocol. B16F10 cells or human NSCLC autologous tumor cells were used as target cells. Mouse CD8+ enriched T cells from gp100-stimulated Pmel splenocytes or human NSCLC TILs were used as effector cells. Target tumor cells were co-cultured with effector cells in 96-well round-bottom microplates at the indicated effector:target ratios with and without Sirt6 inhibitor. After 6 hr, the percentage of specific LDH release was calculated according to the following formula: % cell lysis=(experimental value−effector cells spontaneous release−target cells spontaneous release)×100/(target cells maximum release−target cells spontaneous release), where “experimental” corresponds to the experimental signal value, “effector spontaneous” to spontaneous release of LDH from effector cells alone, “target spontaneous” to spontaneous release of LDH from target cells alone and “maximum release” to the maximum release of LDH from target cells in medium containing 1% Triton X-100.

[2] = tested on: Pmel T cells stimulated with gp100; assay: IFN-γ ELISPOT assay of Pmel T cells; assay type: cell-based, mouse; settings: activated Pmel T cells, OSS vs. DMSO, FIG. 7C
Protocol: The number of IFN-γ producing cells was evaluated in an ELISPOT assay. Briefly, mouse TILs were plated at 1×10^5 cells and co-cultured with 1×10^3 irradiated B16F10 tumor cells (50 Gray) in the presence of the indicated concentrations of OSS, in a 96-well nitrocellulose flat-bottomed plate (ELISPOT plate, Millipore) pre-coated with an anti-mouse IFN-γ antibody (AN-18, Mabtech, Inc.) and incubated for 48 hr at 37° C. For Pmel T cells, splenocytes were first stimulated with gp100 (1 μg/ml, Anaspec) for 48 hr in the presence of the indicated concentrations of OSS and then transferred to the ELISPOT plate pre-coated with an anti-mouse IFN-γ antibody (AN-18, Mabtech, Inc.) for an additional 48 hr. For human CD3+ T cells and TILs, cells were first stimulated with plate-coated anti-CD3 for 48 hr in the presence of vehicle or OSS at the indicated concentration and then transferred to the ELISPOT plate pre-coated with an anti-human IFN-γ antibody (1-DIK, Mabtech, Inc.). PMA (10 ng/ml, Sigma-Aldrich) was used as positive assay control. After washing steps and successive biotinylated anti-IFN-γ antibody (R4-6A2, Mabtech, Inc.) and Streptavidin-HRP (BD Bioscience) labeling, spots were detected using AEC Substrate Kit (BD Biosciences) and counted using an AID ELISPOT Reader System (Autoimmun Diagnostika GmbH).

[3] = tested on: CD3+ TILs isolated from B16F10 tumor nodules; assay: Seahorse ECAR of TILs isolated from s.c. B16F10 melanoma tumors; assay type: cell-based, mouse; settings: TILs from s.c. B16F10 tumors in C57BL/6 mice, OSS vs. DMSO, FIG. 6F
Protocol: Anesthetized mice were injected subcutaneously (s.c.) into the hind limb with 2.5×10^5 B16F10 tumor cells in 200 μl of sterile PBS. Tumors were collected after 2 weeks and TILs were isolated for further analysis.
Lymphocytes from subcutaneous tumors were isolated by dicing the tissues followed by enzymatic digestion in PBS containing collagenase type 4 (2 mg/ml, Worthington Biochemical) and DNase I (0.25 mg/ml, Sigma-Aldrich) for 45 min with occasional shaking at 37° C. Cell suspensions were then twice filtered through 100 μm and 40 μm cell strainers (Thermo Fisher Scientific) to obtain single-cell suspension followed by a PBS wash and red blood cell lysis using RBC Lysis Buffer (Biolegend). […]
(§1) Extracellular acidification rate (ECAR) and oxygen consumption rate (OCR) were measured using the Seahorse XF analyzer (Agilent technologies). […] For GST, ECAR and OCR were measured under basal conditions and in response to 10 mM glucose, 1 μM oligomycin and 50 mM 2-DG successively to calculate basal glycolytic rate, glycolytic capacity (in response to oligomycin), and glycolytic reserve (glycolytic capacity-basal rate). […] Results were normalized to total protein quantified using Pierce™ BCA Protein Assay Kit (Thermo Fisher Scientific).

[4] = tested on: human TILs from NSCLC patient tumor samples; assay: Seahorse ECAR of human NSCLC TILs; assay type: cell-based; settings: TILs from 6 NSCLC patients, OSS vs. DMSO
Protocol: Human tumor infiltrating lymphocytes (hTILs) samples isolated from tumor biopsies of patients with non-small cell lung cancer (NSCLC) were generously provided by Moffitt Cancer Center. All human samples remained totally de-identified and no Institutional Review Board (IRB) approval was needed.
hTILs were maintained in RPMI 1640 Medium, supplemented with 10% human AB serum (Valley Biomedical, Inc.), 1 mM Hepes (Sigma-Aldrich), 1% P/S (Thomas Scientific Inc), 50 μg/ml Gentamicin (ThermoFisher Scientific), 50μM β-mercaptoethanol (ThermoFisher Scientific) and 6000 U/ml of recombinant human IL-2 (Peprotech). For metabolic and functional assays, hTILs were cultured in completed RPMI medium, IL-2 free, on plate-bound anti-CD3 antibody (5 μg/ml; OKT-3, BioXCell) in the presence of vehicle or OSS (Selleck Chemicals) at the indicated concentrations.
as §1

## O=C(Nc1ccc(O)c(C(=O)O)c1)c1cccc(NC(=O)c2ccco2)c1 [OSS_128167]
[1]
  IFN-γ release: increase
B16F10 cells
  cytotoxic activity against B16F10 cell challenge: superior cytotoxic activity
[2]
  IFN-γ release: increases
[3]
  glycolytic activity of TILs (ECAR): restored
[4]
  aerobic glycolysis (basal glycolysis, glycolytic capacity): increased
